Laboratory results: US20070071717A1, “Treatment of B cells with IL-21 and B cell activators induces Granzyme B production” (University of Iowa Research Foundation, priority 2005, published 2007)

Legend:
benign B cells = experiment: Apoptosis / cell survival assay of benign B cells; assay type: cell-based, human; conditions: 3 days of culture
Experimental: (§1) Apoptosis and cell survival assay. Cells were harvested at the indicated time points by staining all cells from a given well with mAb for CD19, CD5 and FITC-labeled Annexin V (BD Biosciences, San Diego, Calif.). A predetermined number of calibration beads (CaliBRITE™ Beads, BD Biosciences, San Diego, Calif.) were then added to each sample to allow for normalization of cell counts in different samples at different time points. Flow cytometric apoptosis assays. Cells were stained with Annexin V (BD Biosciences, San Diego, Calif.), or cell-permeable fluorogenic substrates specific for Granzyme B or Caspase 6 for 1 hour at room temperature according to the manufacturer's instructions (Oncolmmunin, Gaithersburg. Md.). A pre-determined number of calibration beads (CaliBRITE™ Beads, BD Biosciences, San Diego, Calif.) was added to each sample to allow for normalization of cell counts at different time points. Propidium iodide at 1 μg/ml was added just prior to flow cytometric analysis. The count of viable cells rather than the count of apoptotic cells was used for the calculation of cell survival because of concerns some non-viable cells may have undergone lysis and not have been available for counting. Absolute cell survival was expressed as percentage of viable cell counts relative to initial plating counts.

Purified B cells = experiment: RT-PCR for granzyme B and perforin in purified B cells; assay type: cell-based, human; conditions: 18 hours, with or without anti-BCR antibodies
Experimental: Purified B cells (purity >99.9%) were cultured for 18 hours in the presence or absence of IL-21 and B cell receptor stimulation (anti-BCR antibodies). Subsequently RNA was isolated and real time RT-PCR with specific primers and probes for granzyme B and perforin was performed. In addition to real time RT-PCR, conventional RT-PCR was also performed and PCR products were run on a gel. The expected amplicon sized are 218 bp (base pairs) and 146 bp for granzyme B and perforin respectively.

[1] = test system: Daudi cells (pre-B cell line); experiment: IFN-γ ELISpot with Daudi cells; assay type: cell-based; conditions: 10^5 cells/well, 16 hours
Experimental: Daudi cells (pre-B cell line) were incubated on IFN-γ-ELISpot plates in the presence of IL-21, CpG ODN, B cell receptor stimulation or various combinations at a cell concentration of 10^5 cells/well. After 16 hours plates were developed and analyzed.

[2] = test system: benign peripheral blood B cells; experiment: Granzyme B flow cytometry and ELISpot with purified benign peripheral B cells; assay type: cell-based, human
Experimental: (§2) Flow cytometry. Antibodies to CD5, CD19, CD27 as well as CD107a were purchased from BD Bioscoences (San Diego, Calif.). IL-21 receptor protein expression was detected using a mAB (clone 152512) from R&D Systems (Minneapolis, Minn.). PKH26 staining was used to identify untreated cells in bystander assays. B-CLL cells were resuspended at a density of 1×10^7 cells/ml in diluent C containing 2 μM PKH26 (both from Sigma, Saint Louis, Mo.). After 3 minutes, the reaction was stopped by adding an equal volume of FBS (HyClone, Ogden, Utah). Subsequently cells were washed 3 times and finally resuspended in AIM-V medium. For flow cytometric Granzyme and Perforin detection, cells were incubated at 1×10^6/ml for 13 hrs, Brefeldin A (Epicentre Technologies, Madison, Wis.) added to a final concentration of […], and cells cultured for 5 more hours. […] Flow cytometric analyses were performed on a FACScan (Becton Dickinson Immunocytometry Systems, San Jose, Calif.) and data analyzed using the program FlowJo (version 6.4.1, Tree Star Inc., Stanford, Calif.).
Elispot assays for human Granzyme B and Perforin. […] Plates were dried completely, and spots read on an Immunospot Series 1 Analyzer and counted using Immunospot 3 software, both from C.T.L. Cellular Technology Ltd. (Cleveland, Ohio).

[3] = test system: untreated, bystander B-CLL cells; experiment: Bystander cell killing assay with autologous B-CLL cells; assay type: cell-based, human; conditions: 24 hours treatment, washed, 2 days co-culture
Experimental: Bystander cell assay. Cells were harvested from CLL subjects and separated into aliquots. One aliquot was treated with CpG ODN, IL-21 or both, while a second was untreated but labeled with a membrane dye. Both aliquots were washed thoroughly, and mixed together in the indicated ratio. Cells were harvested after two days, and the number of viable cells in each aliquot determined by gating on the stained or unstained cells.
Flow cytometry. Antibodies to CD5, CD19, CD27 as well as CD107a were purchased from BD Bioscoences (San Diego, Calif.). IL-21 receptor protein expression was detected using a mAB (clone 152512) from R&D Systems (Minneapolis, Minn.). PKH26 staining was used to identify untreated cells in bystander assays. B-CLL cells were resuspended at a density of 1×10^7 cells/ml in diluent C containing 2 μM PKH26 (both from Sigma, Saint Louis, Mo.). […] Flow cytometric analyses were performed on a FACScan (Becton Dickinson Immunocytometry Systems, San Jose, Calif.) and data analyzed using the program FlowJo (version 6.4.1, Tree Star Inc., Stanford, Calif.).
B-CLL cells treated with CpG ODN and IL-21 can kill untreated autologous cells. […] The inventors next evaluated whether B-CLL cells treated with IL-21 and CpG ODN have the potential to kill. […] The survival of the unstained, untreated cells was then evaluated by flow cytometry.

B-CLL cells [4] = experiment: Flow cytometric apoptosis / cell survival assay (Annexin V, PI) of B-CLL cells; assay type: cell-based, human
Experimental: Apoptosis and cell survival assay. Cells were harvested at the indicated time points by staining all cells from a given well with mAb for CD19, CD5 and FITC-labeled Annexin V (BD Biosciences, San Diego, Calif.). A predetermined number of calibration beads (CaliBRITE™ Beads, BD Biosciences, San Diego, Calif.) were then added to each sample to allow for normalization of cell counts in different samples at different time points.
as §1, with “Flow” for “Apoptosis and cell survival assay. Cells were harvested at the indicated time points by staining all cells from a given well with mAb for CD19, CD5 and FITC-labeled Annexin V (BD Biosciences, San Diego, Calif.). A predetermined number of calibration beads (CaliBRITE™ Beads, BD Biosciences, San Diego, Calif.) were then added to each sample to allow for normalization of cell counts in different samples at different time points. Flow”

B-CLL cells [5] = experiment: Intracellular flow cytometry for Granzyme B, Granzyme A and Perforin in B-CLL cells; assay type: cell-based, human; conditions: 18 hours, Brefeldin A for the last hours
Experimental: Flow cytometry. […] For flow cytometric Granzyme and Perforin detection, cells were incubated at 1×10^6/ml for 13 hrs, Brefeldin A (Epicentre Technologies, Madison, Wis.) added to a final concentration of 1 mg/ml, and cells cultured for 5 more hours. Intracellular staining was performed using a Fix and Perm kit (Caltag Laboratories, Burlingame, Calif.) according to the manufacturer's instructions. Briefly, cells were washed once and resuspended in Fixation Buffer, incubated for 15 minutes at room temperature and washed with PBS. Cells were then resuspended in Permeabilization Buffer and PE- or FITC-labeled antibodies to Granzyme B (clone GB12; Caltag Laboratories), Perforin (clone dG9; BD Pharmingen), Granzyme A (clone CB9; BD Pharmingen) or suitable control antibodies were added. After another 15 minute incubation at room temperature, cells were washed with PBS. Flow cytometric analyses were performed on a FACScan (Becton Dickinson Immunocytometry Systems, San Jose, Calif.) and data analyzed using the program FlowJo (version 6.4.1, Tree Star Inc., Stanford, Calif.).

IL-21 receptor = experiment: Flow cytometry of IL-21 receptor protein on B-CLL cells; assay type: cell-based, human; conditions: after 4 and 7 days of incubation, ODN 2.5 μg/ml, FACS
Experimental: as §2, with “hours. Intracellular staining was performed using a Fix and Perm kit (Caltag Laboratories, Burlingame, Calif.) according to the manufacturer's instructions. Briefly, cells were washed once and resuspended in Fixation Buffer, incubated for 15 minutes at room temperature and washed with PBS.” for “hours.”

Substance | apoptosis of benign B cells (benign B cells) | transcription of the gene for granzyme B in B cells (Purified B cells) | transcription of the gene for perforin in B cells (Purified B cells) | secretion of interferon-γ by Daudi cells [1] | Granzyme B expression by highly purified (99.9%) benign B cells [2] | killing of untreated autologous bystander B-CLL cells by treated B-CLL cells [3] | apoptosis of B-CLL cells (B-CLL cells [4]; 4 days, Annexin V and PI) | ED50 to induce apoptosis of B-CLL cells (B-CLL cells [4]; agent alone, 4 days) [ng/mL] | apoptosis of CD5-negative, atypical B-CLL (B-CLL cells [4]; preliminary, unpublished results) | Granzyme B(+) B-CLL cells, flow cytometry gating on CD19(+) (B-CLL cells [5]) | IL-21 receptor protein levels on B-CLL cells (IL-21 receptor)
IL-21: cytokine of 131 residues (SEQ ID NO:1); Human IL-21 purchased from BioSource | Neither IL-21 alone nor IL-21 plus CpG ODN induced apoptosis | induces transcription | induces transcription | induces the secretion | induced expression of Granzyme B | No such bystander effect | induced some apoptosis | 40 | do not undergo apoptosis | rare Granzyme B(+) B cells | 
control ODN: phosphorothioate-phosphodiester-modified control oligodeoxynucleotide 2243, 5′-GGGGGAGCATGCTGGGGGGG-3′ (SEQ ID NO:5) (DNA GGGGGAGCATGCTGGGGGGG; DNA, backbone and methylation of C not given here; phosphorothioate-phosphodiester chimeric backbone) |  |  |  |  |  |  |  |  |  |  | no detectable effect
